Here are results for five compounds from US8519110B2, “mRNA cap analogs” (Board of Supervisors of Louisiana State University And …, priority 2008, dated 2013).

Molecules are shown by their SMILES. Like-named read-outs stand apart in the source and are kept apart here.

One data set addresses eIF4E (Mus musculus, UniProt P63073). Briefly: Binding affinity of cap analogs to eIF4E by fluorescence titration. The following applies: equilibrium association constant; 20 °C, pH 7.2, ionic strength 150 mM. The procedure: Fluorescence titration measurements were carried out on an LS-50B or LS-55 spectrofluorometer (Perkin Elmer Co.) at 20.0±0.2° C. in 50 mM HEPES/KOH (pH 7.2), 0.5 mM EDTA, and 1 mM DTT, with ionic strength adjusted to 150 mM by addition of KCl. Various cap analogue solutions, of increasing concentration, were added in 1 μl aliquots to 1.4 ml of 0.1 or 0.2 μM protein solutions. Fluorescence intensities were measured with excitation at 280 nm or 295 nm with 2.2 nm bandwidth, and detection at 337 nm with 4 nm bandwidth and a 290-nm cut-off filter. The data were corrected for sample dilution and inner filter effects. Equilibrium association constants (Kas) were determined by fitting the theoretical dependence of fluorescence intensity on cap analog concentration to the experimental data, as otherwise described in A. Niedźwiecka et al., “Biophysical studies of eIF4E cap-binding protein: recognition of mRNA 5′ cap structure and synthetic fragments of eIF4G and 4E-BP1 proteins,” J. Mol. Biol., vol. 312, pp. 615-635 (2002). The concentration of protein was allowed to be a free parameter in the equilibrium equation, to determine the amount of “active” protein. The final Kas was calculated as a weighted average of three to ten independent titrations, with the weights taken as the reciprocals of the squares of the numerical standard deviations. Numerical nonlinear least-square regression analysis was performed using ORGIN 6.0 (Microcal Software Inc., USA).
The binding affinities of eukaryotic eIF4E for various cap analogs were determined by fluorescence quenching. This biophysical test allows one to predict the potential efficacy of cap analogs in translation. Those having higher affinities for eIF4E than the unmodified cap analog (m^7GpppG) are expected to be better recognized by the translational machinery, leading to higher translational efficiencies. They also are expected to compete more effectively with unmodified mRNA when free cap dinucleotides are used to inhibit translation. See generally E. Grudzien-Nogalska et al., “Synthesis of anti-reverse cap analogs (ARCAs) and their applications in mRNA translation and stability,” Methods Enzymol., vol. 431, pp. 203-227 (2007).

For a further data set, the target named is T1, Human DcpS (Homo sapiens, UniProt Q96C86).
T1 construct: made in house; host or cells: Escherichia coli
T1 sequence (Q96C86 1-337): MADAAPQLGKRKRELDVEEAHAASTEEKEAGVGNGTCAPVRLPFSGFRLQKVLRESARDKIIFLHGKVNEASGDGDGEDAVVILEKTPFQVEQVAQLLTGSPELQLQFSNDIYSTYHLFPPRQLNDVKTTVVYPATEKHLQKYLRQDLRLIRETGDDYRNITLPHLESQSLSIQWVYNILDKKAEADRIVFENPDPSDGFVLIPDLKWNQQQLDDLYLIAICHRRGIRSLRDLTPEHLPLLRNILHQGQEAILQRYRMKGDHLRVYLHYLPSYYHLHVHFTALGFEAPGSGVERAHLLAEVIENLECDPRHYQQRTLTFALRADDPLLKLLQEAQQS
Briefly: Assay of susceptibility to DcpS (RP HPLC). It counts as biochemical. The following applies: 40 μM cap analog, 30° C., up to 120 min. The procedure:
Human DcpS was expressed in Escherichia coli as described in L. Cohen et al., “Nematode m^7GpppG and m3^2,2,7GpppG decapping: activities in Ascaris embryos and characterization of C. elegans scavenger DcpS,” RNA, vol. 10, pp. 1609-1624 (2004). A 15 μM solution of the protein in 20 mM Tris buffer, pH 7.5, containing 50 mM KCl, 0.2 mM EDTA, 1 mM DTT, 0.5 mM PMSF, and 20% glycerol was stored at −80° C. until used. Enzymatic reactions were carried out at 30° C. in 500 μl of 50 mM Tris-HCl, pH 7.9, containing 20 mM MgCl2 and 60 mM (NH4)2SO4. A 40 μM solution of the selected cap analog was treated with 5.0 μl of DcpS for 120 min. At times of 10, 30, 60, and 120 min, a 100-μl sample was collected from the reaction mixture and deactivated by incubation at 90° C. for 2 min. Samples were analyzed without further treatment by analytical RP HPLC with a linear gradient of methanol in 0.1 M KH2PO4, pH 6.0, from 0-50% over 15 min.

For data set [1], the system named is rabbit reticulocyte lysate system. Description: In vitro translation efficiency of capped luciferase mRNA with 31-base poly(A) tail, method II transcripts. It counts as biochemical. The procedure:
Capped, polyadenylated luciferase mRNAs were synthesized in vitro by PCR from a dsDNA template that contained the SP6 promoter, the 5′-UTR sequence of rabbit β-globin mRNA, the entire firefly luciferase coding region, and 31 adenosine residues. A typical transcription reaction mixture (40 μl) contained SP6 transcription buffer (Fermentas), 0.7 ug of DNA template, 1 U/μl RiboLock Ribonuclease Inhibitor (Fermentas), 0.5 mM each of ATP, CTP, and UTP, 0.1 mM GTP, and 0.5 mM dinucleotide cap analog. The reaction mixture was incubated at 37° C. for 5 min before addition of SP6 RNA polymerase (Fermentas) to a final concentration of 1 U/μl, and incubation then continued for 45 min at 37° C. The reaction mixture was treated with DNase as in Method I. RNA transcripts were purified with NucAway Spin Columns (Ambion). The integrity of transcripts and quantitation was performed as in Method I.
A micrococcal nuclease-treated rabbit reticulocyte lysate system (Flexi Rabbit Reticulocyte Lysate System, Promega) was used for in vitro translation. Translation reactions were performed in 10 μl for 60 min at 30° C. A typical reaction mixture contained 40% reticulocyte lysate, the 20 “standard” amino acids (0.01 mM each), MgCl2 (1.2 mM), potassium acetate (170 mM), and mRNA (five different concentrations of each transcript, ranging from 0.25 to 4 μg/ml). Luciferase activity was measured in a luminometer (Glomax, Promega). Linear regression was used to fit the data points (luciferase activity versus concentration of mRNA transcript), and translational efficiency was defined as the slope of this line. The relative translational efficiencies of the test mRNAs were compared to that of m^7GpppG-capped luciferase mRNA, the latter being defined as 1.0.

The target in data set [2] is cap-dependent translation of luciferase mRNA in reticulocyte lysate. Briefly: Inhibition of cap-dependent translation in vitro by free cap analogs. It counts as biochemical, rabbit. As to the method:
In vitro translation reactions were performed in 12.5 μl for 60 min at 30° C. under conditions favorable for cap-dependent translation. In some cases, the reaction mixture was incubated for 60 min at 30° C. prior to adding the dinucleotide cap analog (inhibitor) and m2^7,3′-OGppG-capped luciferase mRNA to start translation. In other cases, to analyze biological stability, the cap analog was incubated in the translation mixture for 60 min at 30° C. prior to adding the luciferase mRNA to start translation. A typical reaction mixture contained 56% reticulocyte lysate, the 20 “standard” amino acids (0.01 mM each), MgCl2 (1.2 mM), potassium acetate (170 mM), RiboLock Ribonuclease Inhibitor (0.32 U/μl), cap analog solution ( 1/10 of total reaction volume), and m2^7,3′-OGpppG-capped luciferase RNA. […] Reactions were performed with cap analog concentrations ranging from 0.12 to 100 μM. Luciferase activity was measured in a luminometer. […] The program OriginPro8 (OriginLab) was used for curve fitting with the equation qLUC=Z/(1+I/IC50)+N, where qLUC is the activity of luciferase synthesized in the presence of cap analog, Z is the activity of luciferase synthesized in the absence of cap analog, N is the activity of luciferase synthesized in a cap-independent manner, and I is the cap analog concentration.
Two type of experiments were carried out. In one set of experiments (condition A), a cap analog was added to the translation system together with luciferase mRNA. In the other set of experiments (condition B), the cap analog was incubated in the translation system for 60 min before addition of mRNA. […] There was a correlation between the resistance to hydrolysis by DcpS and the stability of analogs in the translation system.

Data set [3] in a line: Chemical stability in solution and on storage. It counts as physicochemical. As to the method: FIG. 5 depicts the synthesis of m2^7,2′-OGppSepG. The selenophosphate (PSeO3^−3) was prepared by a modification of the method described in R. Glass et al., “Selenophosphate,” Meth. Enzymol., vol. 252, pp. 309-315 (1995). Trimethylsilyl phosphite was treated with selenium in pyridine to give trimethylsilyl selenophosphate, which was then desilylated by methanol in the presence of triethylamine to give the selenophosphate triethylammonium salt. This compound was coupled with the imidazolide derivative of 7,2′-O-dimethylguanosine 5′-monophosphate (m2^7,2′-OGMP-Im) to give 7,2′-O-dimethylguanosine 5′-O-(2-selenodiphosphate) (m2^7,2′-OGDPβSe). […] The reaction was very rapid; essentially 100% conversion of m2^7,2′-OGMP-Im into m2^7,2′-OGDPβSe was observed by RP HPLC after 15 min. […] Thus, care was taken to maintain the pH at 7 or above during purification of m2^7,2′-OGDPβSe, which allowed the product to be isolated with 80% yield after ion-exchange chromatography. The m2^7,2′-OGDPβSe was then coupled with the imidazolide derivative of GMP in the presence of excess ZnCl2. Two peaks were observed by RP HPLC, corresponding to two m2^7,2′-OGppSepG diastereomers, which were designated D1 and D2 according to their elution order. However, the coupling proceeded slowly, and complete disappearance of m2^7,2′-OGDPβSe took about two days. The extended reaction time allowed partial hydrolysis of m2^7,2′-OGDPβSe to m2^7,2′-OGMP, and only a moderate reaction yield (40% conversion by HPLC, 25% isolated). The diastereomeric mixture of m2^7,2′-OGppSepG after isolation by ion-exchange chromatography was successfully resolved into pure diastereomers by RP HPLC. The products were characterized by mass spectrometry, ^1H NMR, and ^31P NMR to confirm structures and homogeneity.

[4] abbreviates: cap analog added together with luciferase mRNA, read-out: Inhibition of in vitro translation (IC50), condition A.
Setting [5] is: cap analog incubated in translation system 60 min before addition of mRNA, read-out: Inhibition of in vitro translation (IC50), condition B.

By IC50 is commonly meant the concentration that inhibits the measured activity by half.

Sequence of eIF4E (P63073 28-217 limits assumed): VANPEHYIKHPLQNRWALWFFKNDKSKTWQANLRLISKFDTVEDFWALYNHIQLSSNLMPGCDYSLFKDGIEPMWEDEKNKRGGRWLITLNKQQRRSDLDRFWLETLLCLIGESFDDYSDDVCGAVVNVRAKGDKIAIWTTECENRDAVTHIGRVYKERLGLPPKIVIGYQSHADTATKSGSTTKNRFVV

As for `[BH3-]P(=O)(OP(=O)(O)OCC1OC(n2cnc3c(=O)[nH]c(N)nc32)C(O)C1O)OP(=O)(O)OCC1OC(n2c[n+](C)c3c(=O)[nH]c(N)nc32)C(O)C1O` (single isomer, unassigned) [m^7GppBH3pG (D1), m^7GppBH3pG], on eIF4E, the “Cap analog/eIF4E affinity (KAS)” value came to 44 ± 2 μM^−1. The “Susceptibility to DcpS” value at Human DcpS was “resistant”. Moreover, the “Translation efficiency in comparison to m^7GpppG-LUC-(A)31 mRNA, Experiment No. 4” value in data set [1] (experiment 4) was determined as 1.65. In addition, the “Translation efficiency in comparison to m^7GpppG-LUC-(A)31 mRNA, Experiment No. 5” value in data set [1] (experiment 5) turned out to be 2.17. Also, in data set [1] (mean of experiments), the “Translation efficiency in comparison to m^7GpppG-LUC-(A)31 mRNA, Mean” value was 1.91. In addition, the IC50 was determined as 1.6 ± 0.3 µM in data set [2] (setting [4]) and 1.3 ± 0.1 µM in data set [2] (setting [5]).
As for `[BH3-]P(=O)(OP(=O)(O)OCC1OC(n2cnc3c(=O)[nH]c(N)nc32)C(O)C1O)OP(=O)(O)OCC1OC(n2c[n+](C)c3c(=O)[nH]c(N)nc32)C(O)C1O` (single isomer, unassigned) [m^7GppBH3pG (D2), m^7GppBH3pG], on eIF4E, the “Cap analog/eIF4E affinity (KAS)” value amounted to 13.0 ± 0.2 μM^−1. Also, the “Susceptibility to DcpS” value at Human DcpS is on record as “resistant”. For the same compound, the IC50 amounted to 4.5 ± 0.5 µM in data set [2] (setting [4]) and 3.5 ± 0.9 µM in data set [2] (setting [5]).
As for `[BH3-]P(=O)(OC[C@H]1O[C@@H](n2cnc3c(=O)[nH]c(N)nc32)[C@H](O)[C@@H]1O)OP(=O)(O)OP(=O)(O)OC[C@H]1O[C@@H](n2c[n+](C)c3c(=O)[nH]c(N)nc32)[C@H](O)[C@@H]1O` (single isomer, unassigned) [m^7GpppBH3G (D1), m^7GpppBH3G], the “Cap analog/eIF4E affinity (KAS)” value on eIF4E worked out at 14.5 ± 0.2 μM^−1. Besides, the “Susceptibility to DcpS” value at Human DcpS is listed as “hydrolyzed”. The IC50 came out at 3.2 ± 0.3 µM in data set [2] (setting [4]) and 9.2 ± 1.9 µM in data set [2] (setting [5]).
In the case of `[BH3-]P(=O)(OC[C@H]1O[C@@H](n2cnc3c(=O)[nH]c(N)nc32)[C@H](O)[C@@H]1O)OP(=O)(O)OP(=O)(O)OC[C@H]1O[C@@H](n2c[n+](C)c3c(=O)[nH]c(N)nc32)[C@H](O)[C@@H]1O` (single isomer, unassigned) [m^7GpppBH3G (D2), m^7GpppBH3G], the “Cap analog/eIF4E affinity (KAS)” value at eIF4E is recorded as 14.4 ± 0.6 μM^−1. Moreover, the “Susceptibility to DcpS” value on Human DcpS was “hydrolyzed”. Also, the IC50 in data set [2] (setting [4]) stood at 3.1 ± 0.2 µM; in data set [2] (setting [5]) it was 16.4 ± 0.8 µM.
Regarding `COC1C(O)C(COP(=O)([O-])OP(O)(O)=[Se])OC1n1c[n+](C)c2c(=O)[nH]c(N)nc21` (stereo not drawn) [m2^7,2′-OGDPβSe, 7,2′-O-dimethylguanosine 5′-O-(2-selenodiphosphate)], the “Stability in acidic aqueous solutions” value in data set [3] (acidic aqueous solutions, hydrolyzed to m2^7,2′-OGMP) is “unstable”. The “Stability in neutral or basic solutions” value in data set [3] (neutral or basic solutions) is recorded as “only moderately stable”.
